Experimental data taken from a compilation of properties of binary mixtures (doi:10.1021/je300093r).

Experiment: xn = mol fraction of the nth substance listed
Details: 101 kPa

CCCC[n+]1ccccc1.F[B-](F)(F)F + CCCC[n+]1ccccc1.O=S(=O)([N-]S(=O)(=O)C(F)(F)F)C(F)(F)F
x2 = 0
Details	viscosity [mPa·s]
313.15 K	74.8
323.15 K	48.1
333.15 K	33
343.15 K	23.8

CCCC[n+]1ccccc1.O=S(=O)([N-]S(=O)(=O)C(F)(F)F)C(F)(F)F + CCCC[n+]1ccccc1.F[B-](F)(F)F
viscosity [mPa·s]
Details	303.15 K	313.15 K	323.15 K	333.15 K	343.15 K	353.15 K
x1 = 0.0442	115.3	70.5	46.1	31.9	22.9	17.1
x1 = 0.1119	105	66.2	43.8	30.4	–	–
x1 = 0.2162	–	57.6	38.6	27.3	–	15.2
x1 = 0.3217	82.6	53.1	35.7	25.5	18.7	14.4
x1 = 0.4327	75.7	–	33.3	23.8	17.6	–
x1 = 0.5429	70.2	–	31.8	23.1	17.3	–
x1 = 0.6523	63.1	–	29.8	–	16.4	12.8
x1 = 0.7643	–	39.1	27.7	20.5	15.5	12.1
x1 = 0.8822	54.1	–	25.8	19.2	–	11.5
x1 = 0.9467	52	35	25	18.5	14.1	11.1
x1 = 1	49.4	33.8	–	17.9	13.7	–
